EC50, Emax and CLint scaled data for 18 molecules are collected here from US20190062305A1, “PYRIDYL OR PYRAZINYL COMPOUNDS CARRYING A METHYL-BOUND ALPHA-AMINO ACID AMIDE GROUP” (ABBVIE DEUTSCHLAND GMBH & CO. KG, priority 2015, published 2019).

Data set [1] concerns the target T1, 5-HT2C receptor (Homo sapiens, UniProt P28335).
T1 construct: host or cells: U2OS
Briefly: Human 5-HT2C functional assay (beta-arrestin2 recruitment, U2OS_HTR2C_β-Arrestin cells). Format: cell-based. The note with it: for EC50: beta-arrestin2 recruitment, U2OS_HTR2C_β-Arrestin cells, 1.5 h incubation, read-out: EC50 5-HT2C (potency in functional assay); for Emax: relative efficacy vs response to 10 μM 5-HT or maximal 5-HT effect (100%). Here is the method:
The functional activity of compounds of formula I was assayed by incubation with U2OS_HTR2C_β-Arrestin cells (DiscoverX, 93-0289C3) to induce beta-arrestin2 recruitment to the 5-HT2C receptor. The agonist-induced recruitment and proximity of the receptor and beta-arrestin2 leads to complementation and formation of active β-galactosidase. The enzyme complementation results in enzyme activity, which is measured following the termination of the agonist incubation using DiscoveRx's detection reagent, which contains a chemiluminescent substrate which produces a high intensity signal. Cells were plated and a medium-change to a 1% serum containing medium was performed 24h later. The next day, test compounds were added and incubated for 1.5 h before addition of detection reagent.
The response produced was measured and compared with the response produced by 10 [mu]M 5-HT or the maximal effect induced by 5-HT (defined as 100%) to which it was expressed as a percentage response (relative efficacy). Dose response curves were constructed using Graphpad Prism (Graph Software Inc.) or using in house adapted software using a 4 parameter dose response model with variable slope (fit=(Bottom+(Top-Bottom)/(1+10^∧((Log EC50−x)*HillSlope))res=(y-fit)). Results are compiled in the table below.
On the technique in general: Activated receptors often draw arrestin, which recruitment assays turn into a signal.

Data set [2] can be described thus: Metabolic stability in human liver microsomes, unbound intrinsic clearance (Cl int/fu mic). The note with it: human, liver microsomes, pH 7.4, human liver microsomes 0.25 mg/mL, 0.5 μM compound, NADPH, read-out: Cl int, mic unb. (h) [l/h/kg] (unbound intrinsic clearance, human). Format: in vitro ADME. The method, then: Samples of the tested compounds (0.5 μM) were preincubated together with human liver microsomes (0.25 mg of microsomal protein/mL) in 0.05 M potassium phosphate buffer of pH 7.4 in microtiter plates at 37° C. for 5 minutes. The reaction was started by adding NADPH (1.0 mM). After 0, 5, 10, 15, 20 and 30 minutes, an aliquot was removed, the reaction was cooled and stopped by adding twice the amount of quench solution consisting of acetonitrile/methanol 1:1, and containing 0.2 μM carbutamide as internal standard. The samples were frozen until analyzed. The remaining concentration of undegraded test substance was determined by liquid chromatography-tandem mass spectrometry (LC-MS/MS). The half-life (t1/2) was determined from the gradient of the ratio of the signal of (test substance/internal standard)/unit time plot, allowing the calculation of the half-life of the test substance, assuming first order kinetics, from the decrease in the concentration of the compound with time. The microsomal clearance ([…]) was calculated as follows: […]=((ln(2)/t 1⁄2)/Microsomal Protein Concentration (mg/ml))*1000, leading to the unit of uL/min/mg. The scaled clearance (mClin_scaled) was calculated as […]_scaled=m CLint*(Microsomal Yield (mg/kg BW))/1000000*60, leading to the units L/h/kg. The Microsomal Yield is defined by the specifics of the used microsomes. Calculations were modified from references: Di, The Society for Biomolecular Screening, 2003, 453-462; Obach, D M D, 1999 vol 27. N 11, 1350-1359. A suspension of 0.25 mg/ml microsomal protein spiked with 0.5 μM of test compound was pipetted on one side of a HTDialysis device (HTDialysis LLC, 37 Ledgewood Drive, Gales Fery CT 06335) separated by a membrane with a MWcut off 12-14 K. 50 mM K-Phosphate buffer (pH 7.4) was added on the other side of the well. After incubation at 37° C. for 4 h while shaking at 150 rpm, aliquots of both sides were taken, quenched with MeOH/ACN 1:1 and 0.2 μM of internal standard and frozen until analysis by LCMSMS Cl int unbound=Cl int/fu mic

Structures can show the parent of a compound that is named as a salt. Where only a bound is given, the exact number is not on record here.

T1 sequence (P28335 33-458): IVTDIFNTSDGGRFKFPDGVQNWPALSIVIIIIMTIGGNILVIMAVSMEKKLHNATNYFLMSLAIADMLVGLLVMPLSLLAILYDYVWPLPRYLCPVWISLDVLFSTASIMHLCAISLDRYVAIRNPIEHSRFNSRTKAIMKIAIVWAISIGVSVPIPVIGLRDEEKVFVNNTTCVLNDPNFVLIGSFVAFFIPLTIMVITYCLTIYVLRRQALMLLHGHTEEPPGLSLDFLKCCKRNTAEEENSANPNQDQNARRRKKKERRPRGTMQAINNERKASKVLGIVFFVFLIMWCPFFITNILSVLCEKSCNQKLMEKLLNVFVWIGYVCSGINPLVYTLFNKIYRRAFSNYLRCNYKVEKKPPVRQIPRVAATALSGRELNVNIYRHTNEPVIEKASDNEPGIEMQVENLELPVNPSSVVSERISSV
T1 sequence (P32121 whole entry partner): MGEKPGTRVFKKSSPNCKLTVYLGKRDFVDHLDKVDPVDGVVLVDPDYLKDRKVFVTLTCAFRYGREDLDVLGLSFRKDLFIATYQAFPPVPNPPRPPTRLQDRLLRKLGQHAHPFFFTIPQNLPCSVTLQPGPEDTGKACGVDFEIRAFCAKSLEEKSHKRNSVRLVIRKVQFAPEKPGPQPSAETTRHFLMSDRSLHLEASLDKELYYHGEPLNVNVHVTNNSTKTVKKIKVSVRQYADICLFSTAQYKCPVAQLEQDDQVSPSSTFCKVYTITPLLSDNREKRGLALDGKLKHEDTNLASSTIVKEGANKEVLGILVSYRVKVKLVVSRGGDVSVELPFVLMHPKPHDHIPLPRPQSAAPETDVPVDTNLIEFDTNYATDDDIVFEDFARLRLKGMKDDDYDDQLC

The EC50 is the concentration giving half of the maximal effect. As usually defined, the Emax is the greatest response seen or fitted, relative to the assay's reference. In the case of `COc1nc(OC[C@H]2CCC(F)(F)C2)c(F)cc1CNC(=O)[C@@H]1CCCN1C` [Example 17, (2S)—N-[[6-[[(1S)-3,3-Difluorocyclopentyl]methoxy]-5-fluoro-2-methoxy-3-pyridyl]methyl]-1-methyl-pyrrolidine-2-carboxamide; Fumaric Acid], in data set [1], the EC50 is 20 to 200 nM and the Emax was in the range of 50 to 70%. Also, the CLint scaled at 0.5 μM in data set [2] lay within 5 to 50 L/h/kg.
Turning to `COc1nc(OCC(F)(F)C(F)(F)F)c(F)cc1CNC(=O)[C@@H]1CCCN1` [Example 18, (2S)—N-[[5-Fluoro-2-methoxy-6-(2,2,3,3,3-pentafluoropropoxy)-3-pyridyl]methyl]-pyrrolidine-2-carboxamide; Succinic Acid], in data set [1], the EC50 was below 20 nM and the Emax is above 70%. For the same molecule, in data set [2], the CLint scaled at 0.5 μM was below 5 L/h/kg.
Take `COc1nc(O[C@H]2CC[C@@H](C(F)(F)F)CC2)c(F)cc1CNC(=O)[C@@H]1CCCN1C` [Example 19, (2S)—N-[[5-Fluoro-2-methoxy-6-[cis-4-(trifluoromethyl)cyclohexoxy]-3-pyridyl]methyl]-1-methyl-pyrrolidine-2-carboxamide; Fumaric Acid]: in data set [1], the concentration giving a half-maximal response (EC50) is below 20 nM and the maximal effect (Emax) is above 70%. In data set [2], the CLint scaled at 0.5 μM fell in the range of 5 to 50 L/h/kg.
For `COc1nc(O[C@H]2CC[C@@H](C(F)(F)F)CC2)c(F)cc1CNC(=O)[C@@H]1CCCN1` [Example 20, (2S)—N-[[5-Fluoro-2-methoxy-6-[cis-4-(trifluoromethyl)cyclohexoxy]-3-pyridyl]methyl]pyrrolidine-2-carboxamide; Fumaric Acid] the same measures were below 20 nM, above 70% and 5 to 50 L/h/kg.
For `COc1nc(OC2CCC(F)(F)C2)c(F)cc1CNC(=O)[C@@H]1CCCN1C` (stereo partly drawn) [Example 23, (2S)—N-[[6-(3,3-Difluorocyclopentoxy)-5-fluoro-2-methoxy-3-pyridyl]methyl]-1-methyl-pyrrolidine-2-carboxamide; Fumaric Acid] the same measures were below 20 nM, above 70% and below 5 L/h/kg.
On the same counts, the results for `COc1nc(OC2CCC(F)(F)C2)c(F)cc1CNC(=O)[C@@H]1CCCN1` (stereo partly drawn) [Example 24, (2S)—N-[[6-(3,3-Difluorocyclopentoxy)-5-fluoro-2-methoxy-3-pyridyl]methyl]-pyrrolidine-2-carboxamide; Fumaric Acid] are below 20 nM, above 70% and below 5 L/h/kg.
On to `COc1nc(OC[C@@H]2CCC(F)(F)C2)c(F)cc1CNC(=O)[C@H]1CCCN1C` [Example 25, (2R)—N-[[6-[[(1R)-3,3-Difluorocyclopentyl]methoxy]-5-fluoro-2-methoxy-3-pyridyl]methyl]-1-methyl-pyrrolidine-2-carboxamide; Fumaric Acid], for which, in data set [1], the EC50 lay within 20 to 200 nM and the Emax lay within 50 to 70%. In addition, the CLint scaled at 0.5 μM in data set [2] was below 5 L/h/kg.
On the same counts, the results for `COc1nc(O[C@H]2CCC(F)(F)C2)c(F)cc1CNC(=O)[C@@H]1CCCN1C` [Example 26, (2S)—N-[[6-[(1S)-3,3-Difluorocyclopentoxy]-5-fluoro-2-methoxy-3-pyridyl]methyl]-1-methyl-pyrrolidine-2-carboxamide Hydrochloride] are below 20 nM, above 70% and below 5 L/h/kg.
For `COc1nc(O[C@@H]2CCC(F)(F)C2)c(F)cc1CNC(=O)[C@@H]1CCCN1C` [Example 27, (2S)—N-[[6-[(1R)-3,3-Difluorocyclopentoxy]-5-fluoro-2-methoxy-3-pyridyl]methyl]-1-methyl-pyrrolidine-2-carboxamide Hydrochloride] the same measures were below 20 nM, above 70% and below 5 L/h/kg.
On the same counts, the results for `COc1nc(O[C@H]2CC[C@H](F)CC2)c(F)cc1CNC(=O)[C@@H]1CCCN1C` [Example 28, (2S)—N-[[5-Fluoro-6-(trans-4-fluorocyclohexoxy)-2-methoxy-3-pyridyl]methyl]-1-methyl-pyrrolidine-2-carboxamide; Fumaric Acid] are below 20 nM, above 70% and below 5 L/h/kg.
As to `COc1nc(O[C@H]2CC[C@@H](F)CC2)c(F)cc1CNC(=O)[C@@H]1CCCN1C` [Example 29, (2S)—N-[[5-Fluoro-6-(cis-4-fluorocyclohexoxy)-2-methoxy-3-pyridyl]methyl]-1-methyl-pyrrolidine-2-carboxamide; Fumaric Acid], in data set [1], the EC50 was below 20 nM and the maximal response (Emax) was above 70%. The CLint scaled at 0.5 μM in data set [2] was below 5 L/h/kg.
For the molecule `COc1nc(O[C@H]2CC[C@@H](F)CC2)c(F)cc1CNC(=O)[C@@H]1CCCN1` [Example 30, (2S)—N-[[5-Fluoro-6-(cis-4-fluorocyclohexoxy)-2-methoxy-3-pyridyl]methyl]-pyrrolidine-2-carboxamide; Fumaric Acid], in data set [1], the concentration giving a half-maximal response (EC50) is below 20 nM and the maximal effect (Emax) is above 70%. The CLint scaled at 0.5 μM in data set [2] is below 5 L/h/kg.
For `COc1nc(O[C@H]2CC[C@H](F)CC2)c(F)cc1CNC(=O)[C@@H]1CCCN1` [Example 31, (2S)—N-[[5-Fluoro-6-(trans-4-fluorocyclohexoxy)-2-methoxy-3-pyridyl]methyl]-pyrrolidine-2-carboxamide; Fumaric Acid] the same measures were below 20 nM, above 70% and below 5 L/h/kg.
On the same counts, the results for `COc1nc(OC[C@H]2CCC(F)(F)C2)c(F)cc1CNC(=O)[C@@H]1CCCN1` [Example 32, (2S)—N-[[6-[[(1S)-3,3-Difluorocyclopentyl]methoxy]-5-fluoro-2-methoxy-3-pyridyl]methyl]pyrrolidine-2-carboxamide; Fumaric Acid] are below 20 nM, 50 to 70% and below 5 L/h/kg.
On the same counts, the results for `COc1nc(OC[C@@H]2CCC(F)(F)C2)c(F)cc1CNC(=O)[C@@H]1CCCN1` [Example 33, (2S)—N-[[6-[[(1R)-3,3-Difluorocyclopentyl]methoxy]-5-fluoro-2-methoxy-3-pyridyl]methyl]pyrrolidine-2-carboxamide; Fumaric Acid] are below 20 nM, above 70% and below 5 L/h/kg.
For the molecule `COc1nc(OC2CCC(F)(F)CC2)c(F)cc1CNC(=O)[C@@H]1C[C@@H](F)CN1` [Example 34, (2S,4R)—N-[[6-(4,4-Difluorocyclohexoxy)-5-fluoro-2-methoxy-3-pyridyl]methyl]-4-fluoro-pyrrolidine-2-carboxamide; Fumaric Acid], in data set [1], the EC50 was below 20 nM and the Emax was above 70%. Moreover, the CLint scaled at 0.5 μM in data set [2] was below 5 L/h/kg.
Regarding `COc1nc(OC2CCC(C(F)(F)F)CC2)c(F)cc1CNC(=O)[C@@H]1C[C@@H](F)CN1` (stereo partly drawn) [Example 35, (2S,4R)-4-Fluoro-N-[[5-fluoro-2-methoxy-6-[4-(trifluoromethyl)cyclohexoxy]-3-pyridyl]methyl]pyrrolidine-2-carboxamide; Fumaric Acid], in data set [1], the EC50 was below 20 nM and the maximal response (Emax) was above 70%. Also, in data set [2], the CLint scaled at 0.5 μM is below 5 L/h/kg.
For the molecule `COc1nc(OC2CCC(C(F)(F)F)CC2)c(F)cc1CNC(=O)[C@@H]1CCN1` (stereo partly drawn) [Example 36, (2S)—N-[[5-Fluoro-2-methoxy-6-[4-(trifluoromethyl)cyclohexoxy]-3-pyridyl]-methyl]azetidine-2-carboxamide; Succinic Acid], in data set [1], the EC50 is below 20 nM and the Emax was 50 to 70%. Besides, the CLint scaled at 0.5 μM in data set [2] was 5 to 50 L/h/kg.
